Measured values published in US10292976B2, “Anti-malarial agent” (RIKEN, priority 2014, dated 2019).
Where two headings read alike, the source gives them in different places.

Experiments:
[1] = Cytotoxicity by WST-8 assay, tsNRK; format: cell-based; settings: rat, tsNRK cells
Procedure: (§1) After treating various kinds of cells (HEK293T: human embryonic kidney cells; HeLa: human cervical cancer cells; NIH3T3: mouse fibroblast cells; tsNRK: rat kidney cells; and 3Y1: rat fibroblasts) with a metal chelator for 48 hours, the cytotoxicities of the cells were evaluated by WST-8 assay.

malaria parasites = settings: cited from earlier work
[2] = Cytotoxicity by WST-8 assay, HEK293T; format: cell-based; settings: human, HEK293T cells
Procedure: as §1

[3] = Cytotoxicity by WST-8 assay, NIH3T3; format: cell-based; settings: mouse, NIH3T3 cells, NIH3T3, 48 hours
Procedure: as §1

[4] = Cytotoxicity by WST-8 assay, HeLa; format: cell-based, human; settings: human, HeLa cells, HeLa, 48 hours, read-out: IC50 value, cytotoxicity
Procedure: as §1
(§2) Subsequently, the following cell types: HL60 (human promyelocytic leukemia cells), HeLa (human cervical cancer cells), C3H10T1/2 (murine multipotential mesenchymal cells), and HEK293 (human embryonic kidney 293 cells); were treated with metal complexes M-L6 (M=Zn, Fe, Cu, Co, Ni, and Mn) for 48 hours, and then subjected to WST-8 assay to perform evaluation of the cytotoxicity of each kind of metal complex.

[5] = Cytotoxicity by WST-8 assay, 3Y1; format: cell-based; settings: rat, 3Y1 cells, 3Y1, 48 hours
Procedure: as §1

[6] = test system: HEK293 (human embryonic kidney 293 cells); test: Cytotoxicity by WST-8 assay, HEK293; format: cell-based; settings: Table 3, 48 hours
Procedure: as §2

[7] = test system: HL60 (human promyelocytic leukemia cells); test: Cytotoxicity by WST-8 assay, HL60; format: cell-based; settings: Table 3, 48 hours
Procedure: as §2

[8] = test system: Plasmodium falciparum: 3D7 strain; test: Antimalarial activity by LDH assay, 3D7 strain; format: cell-based; settings: for antimalarial activity (LDH assay, FIG. 2): 10 nM to 10 μM
Procedure: Compounds that chelate metal ions in various modes (L1 to L25 in FIG. 1) were selected, and their antimalarial activities were evaluated by LDH assay. Since infection with malaria causes an increase in the LDH activity, the evaluation can be made based on the criteria that the lower the detected LDH activity, the higher the antimalarial activity.
(§3) The LDH assay was carried out according to the following procedure. That is, 0.5 μL of a solution of each compound in DMSO was added to 100 μL of a culture liquid of erythrocytes (88% RPMI solution; 2% erythrocytes, provided by the Japanese Red Cross Society; and 10% human serum, provided by the Japanese Red Cross Society) infected with falciparum malaria parasites (Plasmodium falciparum: 3D7 strain) (infection rate of erythrocytes, 0.3%). The resulting culture liquid was subjected to culture in a 96-well plate under an atmosphere of 5% CO2, 5% O2, and 90% N2 at 37° C. for three days. Subsequently, the culture liquid was cooled at −80° C. for three hours, and then returned to room temperature. After addition of 150 μL of an LDH enzyme reaction liquid (0.15 mg/mL diaphorase, 37.5 μL/mL of 50% sodium lactate, 0.17 mg/mL NBT, 0.11 mg/mL APAD, 0.16 mL/mL of 1 M Tris-HCl (pH 8), and 8.3 μL/mL of Tween 20), the absorbance at 620 nm was measured.
By the same procedure as in Experiment 1, erythrocytes infected with malaria were treated with L6 (about 40 nM) together with iron ion (about 50 μM), copper ion (about 1 μM), or zinc ion (about 10 μM), and the antimalarial activity was evaluated by LDH assay.
(§4) According to the same procedure as in Experiment 1, the antimalarial activities of metal complexes (M-L6) synthesized by mixing various kinds of metal ions (MSO4: M=Zn, Fe, Cu, Co, Ni, or Mn) with L6 at a molar ratio of 1:1 were evaluated by LDH assay.

[9] = test system: C3H10T1/2 (murine multipotential mesenchymal cells); test: Cytotoxicity by WST-8 assay, C3H10T1/2; format: cell-based; settings: Table 3, 48 hours
Procedure: as §2

[10] = test system: HeLa: human cervical cancer cells; test: Cytotoxicity by WST-8 assay, HeLa; format: cell-based; settings: Table 3, 48 hours, WST-8
Procedure: as §1, §2

[11] = test system: drug-resistant malaria parasite K1 strain; test: Antimalarial activity by LDH assay, K1 strain; format: cell-based, Plasmodium falciparum
Procedure: as §3, §4
According to the same procedure as in Experiment 1, the antimalarial activities of L18 and di-2-pyridylketone 4,4-dimethyl-3-thiosemicarbazone (Sigma) against the malaria parasite 3D7 strain and the drug-resistant malaria parasite K1 strain were evaluated by LDH assay.
According to the same procedure as in Experiment 1, the antimalarial activities of 4′-(4-Pyridyl)-2,2′:6′,2″-terpyridine (Tokyo Chemical Industry) against the malaria parasite 3D7 strain and the drug-resistant malaria parasite K1 strain were evaluated by LDH assay.

[12] = test system: Dd2 strain (drug-resistant malaria parasites); test: Antimalarial activity by LDH assay, Dd2 strain; format: cell-based, Plasmodium falciparum; settings: Table 2, LDH assay, Experiment 6; read-out: IC50 antimalarial activity, Dd2
[13] = test system: mouse malaria parasites (Plasmodium berghei ANKA strain); test: Life-prolonging effect in malaria-infected mice, oral administration; format: in vivo; settings: oral 200 mg/kg on Day 1, Day 3, and Day 6
Procedure: To mice (7 weeks old, Balb/c, male), erythrocytes infected with mouse malaria parasites (Plasmodium berghei ANKA strain) (total number of erythrocytes per mouse, about 10^7; rate of malaria-infected erythrocytes, 0.3%) were intraperitoneally injected. L6 was administered (20 mg/kg, intraperitoneal injection) to each of the thus obtained malaria-infected mice, and the rate of malaria-infected erythrocytes was measured. As a result, on Day 2 to Day 6 after the infection, the infection rate tended to increase in the negative control to which only DMSO was administered. […] The effect of L6 to reduce the infection rate was almost equivalent to the effect of an existing drug, chloroquine (CQ).
To malaria-infected mice obtained by the same procedure as in Experiment 4, an aqueous solution of L6 or the zinc complex Zn-L6 was orally administered (at a dose of 200 mg/kg on Day 1, Day 3, and Day 6; N=6), and changes in the number of surviving individuals were investigated. […] That is, it is thought that, by formation of metal complex with zinc ion, L6 can remarkably suppress the toxicity in vivo while sufficiently maintaining the antimalarial activity.

[14] = test system: HL60, HeLa, C3H10T1/2, and HEK293; test: Cytotoxicity by WST-8 assay, summary for the four cell types of Experiment 6; format: cell-based; settings: C3H10T1/2, HEK293, 48 hours
Procedure: as §2

[15] = Table 2, LDH assay, Experiment 6, read-out: IC50 antimalarial activity, 3D7
[16] = Plasmodium falciparum, 3D7, 3D7 strain, values in text, read-out: IC50 value for the antimalarial activity based on the LDH assay
[17] = Plasmodium falciparum, LDH assay, values in text, read-out: IC50 antimalarial activity against the K1 strain

SMILES | IC50 [6] | IC50 [7] | IC50 [8, 15] | IC50 [9] | IC50 [10] | IC50 [8, 16] | other results
c1ccc(CN(CCN(Cc2ccccn2)Cc2ccccn2)Cc2ccccn2)nc1 [L7, N,N,N′,N′-Tetrakis(2-pyridylmethyl)ethylenediamine, reference compound] |  |  |  |  |  |  | IC50 at 48 h ([1]; 1st measurement): 1.84 µM; IC50 at 48 h ([1]; 2nd measurement): 2.09 µM; inhibition of infection with malaria parasites (malaria parasites; Non-patent Document 1): inhibits infection with malaria parasites; IC50 at 48 h ([2]; 1st measurement): 1.99 µM; IC50 at 48 h ([2]; 2nd measurement): 3.14 µM; IC50 at 48 h ([3]; 1st measurement): 1.66 µM; IC50 at 48 h ([3]; 2nd measurement): 1.79 µM; IC50 at 48 h ([4]; 1st measurement (Table 1)): 5.53 µM; IC50 at 48 h ([4]; 2nd measurement (Table 1)): 4.96 µM; IC50 at 48 h ([5]; 1st measurement): 5.11 µM; IC50 at 48 h ([5]; 2nd measurement): 4.93 µM
O=S(=O)([O-])[O-].[Mn+2].c1ccc(CN(Cc2ccccn2)Cc2ccccn2)nc1 [Mn-L6] | 3.7 µM | 1.5 µM | 0.11 µM | 4.2 µM | 4.5 µM |  | 
C[C@@H]1CC[C@H]2[C@@H](C)C(=O)O[C@@H]3O[C@@]4(C)CC[C@@H]1[C@]32OO4 [artemisinin, reference compound] |  |  |  |  |  | ~0.016 µM | 
O=C(Nc1cccc(CN(Cc2ccccn2)Cc2ccccn2)n1)c1ccccc1 [Bis(2-pyridylmethyl)(6-benzamide-2-pyridylmethyl)amine] |  |  |  |  |  | ~0.07 µM | 
O=S(=O)([O-])[O-].[Zn+2].c1ccc(CN(Cc2ccccn2)Cc2ccccn2)nc1 [Zn-L6] | > 100 µM | > 100 µM | 0.093 µM | > 100 µM | > 100 µM |  | IC50 ([11]; Table 2, LDH assay, Experiment 6, read-out: IC50 antimalarial activity, K1): 0.089 µM; IC50 [12]: 0.166 µM; cure / infection rate of malaria [13]: completely cured mice, in which the infection rate of malaria was 0%, could be found; life-prolonging effect (number of surviving individuals) [13]: significantly better life-prolonging effect than in the control; IC50 [14]: > 100 µM; antimalarial activity of metal complex compared to L6 alone ([8]; LDH assay, metal ion:L6 molar ratio 1:1, result in words): almost the same as that in the case of L6 alone
O=S(=O)([O-])[O-].[Co+2].c1ccc(CN(Cc2ccccn2)Cc2ccccn2)nc1 [Co-L6] | 20.6 µM | 6.6 µM | 0.55 µM | 18 µM | 18 µM |  | 
c1ccc(-c2ccnc3c2ccc2c(-c4ccccc4)ccnc23)cc1 [L17, 4,7-Diphenyl-1,10-phenanthroline] |  |  |  |  |  |  | antimalarial activity (LDH assay, FIG. 2) ([8]; result in words): relatively strong antimalarial activity
O=S(=O)([O-])[O-].[Fe+2].c1ccc(CN(Cc2ccccn2)Cc2ccccn2)nc1 [Fe-L6] | 6.1 µM | 4.8 µM | 0.19 µM | 9.6 µM | 9.5 µM |  | 
O=S(=O)([O-])[O-].[Ni+2].c1ccc(CN(Cc2ccccn2)Cc2ccccn2)nc1 [Ni-L6] | 47.6 µM | 16 µM | 0.74 µM | 54 µM | 32 µM |  | 
CN(C)C(=S)NN=C(c1ccccn1)c1ccccn1 [di-2-pyridylketone 4,4-dimethyl-3-thiosemicarbazone] |  |  |  |  |  | ~0.004 µM | IC50 [11, 17]: ~0.003 µM
CCN(CC)CCCC(C)Nc1ccnc2cc(Cl)ccc12 (stereo not drawn) [chloroquine, reference compound] |  |  |  |  |  |  | IC50 ([8]; Plasmodium falciparum, 3D7, read-out: IC50 value for the antimalarial activity based on the LDH assay): ~0.045 µM
CN(C(=S)NN=C(c1ccccn1)c1ccccn1)C1CCCCC1 [di-2-pyridylketone-4-cyclohexyl-4-methyl-3-thiosemicarbazone] |  |  |  |  |  | ~0.002 µM | 
CC(=O)N(O)CCCCCNC(=O)CCC(=O)N(O)CCCCCNC(=O)CCC(=O)N(O)CCCCCN [DFO, desferrioxamine] |  |  |  |  |  |  | IC50 (malaria parasites; Non-patent Document 3, read-out: antimalarial activity IC50): 21 µM
c1ccc(-c2cc(-c3ccncc3)cc(-c3ccccn3)n2)nc1 [4′-(4-Pyridyl)-2,2′:6′,2″-terpyridine] |  |  |  |  |  | ~0.16 µM | IC50 [11, 17]: ~0.07 µM
O=S(=O)([O-])[O-].[Cu+2].c1ccc(CN(Cc2ccccn2)Cc2ccccn2)nc1 [Cu-L6] | 6 µM | 5 µM | 0.12 µM | 12 µM | 13 µM |  | 
c1ccc(-c2cccc(-c3ccccn3)n2)nc1 [L18, 2,2′:6′,2″-Terpyridine] |  |  |  |  |  | ~0.28 µM | IC50 [11, 17]: ~0.12 µM; antimalarial activity (LDH assay, FIG. 2) ([8]; result in words): relatively strong antimalarial activity
Nc1cc2cccnc2c2ncccc12 [L3, (1,10)-Phenanthrolin-5-amine] |  |  |  |  |  |  | IC50 at 48 h ([1]; 1st measurement): 6.12 µM; IC50 at 48 h ([1]; 2nd measurement): 3.08 µM; IC50 at 48 h ([2]; 1st measurement): 0.49 µM; IC50 at 48 h ([2]; 2nd measurement): 0.47 µM; IC50 at 48 h ([5]; 1st measurement): 0.73 µM; IC50 at 48 h ([5]; 2nd measurement): 0.67 µM
